Legend:
[1] = tested on: developing zebrafish embryos; assay: Antisense morpholino knockdown: heart rate of zebrafish embryos; assay type: in vivo, zebrafish (Danio rerio); conditions: 200 μM MO into 1-cell embryos
Protocol: The heart rate of zebrafish embryos was measured under an Olympus MVX10 microscope at room temperature. After zebrafish embryos were acclimated to the new environment (room temperature, light), heart rate was counted by eye.
(§1) Morpholino antisense oligos (MO) were purchased from Gene Tools (Philomath, OR, United States) ([Fujii et al., 2020]). Zebrafish 1-cell embryos were injected with approximately 5 nL of MO solution at a concentration of 200 μM (approximately 10 ng/embryo).
Since DrHCN4 and DrHCN4L have similar sensitivities to the HCN inhibitors, individual gene knockdowns would be required for evaluating each channel’s role in heart rate regulation. Before knocking down each gene, we first confirmed that both HCN4 channels (DrHCN4 and DrHCN4L) were expressed in day 1, day 3, and day 7 embryos and in the heart and brain of adult fish (Figure 6A). We next investigated whether the knockdown of each gene affects heart rate in zebrafish. The expression of each gene was knocked down by using antisense morpholino (MO), which is commonly used in zebrafish ([Blum et al., 2015]; [Jou et al., 2017]; [Fujii et al., 2020]). MO solutions were injected into 1-cell embryos of zebrafish. […] Embryos were injected with control MO, DrHCN4 MO, and DrHCN4L MO at concentrations of 200 μM or with a mixture of DrHCN4 MO and DrHCN4L MO (200 μM for each). At 24 h after injection of MO, there was a slight decrease of heart rate in embryos injected with DrHCN4 MO (44 ± 2 bpm, p = 0.049) and DrHCN4L MO (45 ± 2 bpm, p = 0.092) compared to the heart rate in embryos injected with control MO (54 ± 1 bpm). […] After 48 h, heart rate was considerably lower in all three groups compared to that in the control group (135 ± 4 bpm): DrHCN4 MO (110 ± 3 bpm, p < 0.001), DrHCN4L MO (111 ± 1 bpm, p = 0.001), and mixture of DrHCN4 MO and DrHCN4L MO (116 ± 7 bpm, p = 0.014). However, at 72 h after MO injection, heart rate in all three groups had returned to the same level as that in the control group (145 ± 5 bpm): DrHCN4 MO (136 ± 3 bpm, p = 0.509), DrHCN4L MO (141 ± 5 bpm, p = 0.921), and mixture of DrHCN4 MO and DrHCN4L MO (147 ± 7 bpm, p = 0.991) (Figure 6B and Table 6).
(§2) FIGURE 6 Effects of HCN4 channel knockdown on zebrafish. (A) Expression of DrHCN4 and DrHCN4L in one (1), three (3), and seven (7) day embryos/larvae as well as in the heart (H) and brain (B) of adult fish was confirmed by RT-PCR. Arrows indicate the DNA ladder markers of 1,000 bp and 500 bp. (B) Heart rates at 24, 48, and 72 h are shown in bar graphs for 200 μM MO-injected zebrafish embryos: control MO (n = 20), DrHCN4 MO (n = 10), DrHCN4L MO (n = 10), and mixed DrHCN4 and DrHCN4L MO (n = 10). Statistical analysis was performed by Dunnett’s test. (C) Representative examples of zebrafish injected with control MO, DrHCN4 MO, DrHCN4L MO, and mixed DrHCN4 and DrHCN4L MO. […] Bar, 200 μm. (D) Ratios of normal embryos, pericardial edema, and death at 48 h after injection of 200 µM MO: control MO (n = 136), DrHCN4 MO (n = 75), DrHCN4L MO (n = 34), and mixed DrHCN4 and DrHCN4L MO (n = 30). (E) Pericardial edema and death ratios at 72 h after injection of 200 µM MO. Control MO (n = 136), DrHCN4 MO (n = 75), DrHCN4L MO (n = 34), and mixed DrHCN4 and DrHCN4L MO (n = 30).

[2] = tested on: developing zebrafish embryos; assay: as above; assay type: in vivo, zebrafish (Danio rerio); conditions: Supplementary Figure S2, 52 hpf
[3] = tested on: zebrafish embryos; assay: Incidence of pericardial edema in MO-injected zebrafish embryos; assay type: in vivo, zebrafish (Danio rerio); conditions: embryos surviving first 24 h
Protocol: as §1, §2
Pericardial edema is often observed in embryonic zebrafish with heart failure ([Narumanchi et al., 2021]). We determined the incidence of edema in zebrafish injected with 200 μM MO. We only examined zebrafish embryos that survived for the first 24 h after MO injection, and the rates of edema occurrence were determined at 48 and 72 h after injection. […] After 72 h, the proportions of embryos with edema increased to 79, 94, and 87% (Figure 6E).

[4] = tested on: adult zebrafish; set-up: method as in Marchant and Farrell, 2019; conditions: intraperitoneal injection, depending on test temperatures, ref Marchant and Farrell, 2019; cited from earlier work
[5] = 48 h after injection of 200 μM MO
[6] = 72 h after injection of 200 μM MO

| Compound | Heart rate ([1]; 24 h after MO injection) [bpm] | Heart rate ([1]; 48 h after MO injection) [bpm] | Heart rate ([1]; 72 h after MO injection) [bpm] | Effect of injection on heart rate [2] | Embryos showing pericardial edema [3, 5] [%] | Embryos showing pericardial edema [3, 6] [%] | Reduction of maximum heart rate [4] |
| --- | --- | --- | --- | --- | --- | --- | --- |
| 5′-CCTCTTACCTCAGTTACAATTTATA -3′ [Control MO] | 54 ± 1 | 135 ± 4 | 145 ± 5 | did not affect heart rate | – | – | – |
| 5′-GGCGACGCTGGCTGAAAAATAGGTC -3′ (all phosphorodiamidate morpholino (PMO)) [DrHCN4L MO, Morpholino antisense oligo against DrHCN4L (Gene Tools)] | 45 ± 2 | 111 ± 1 | 141 ± 5 | – | 62 | 94 | – |
| 5′-GTAATTACTGCCACCGTGCACCACA-3′ (all phosphorodiamidate morpholino (PMO)) [DrHCN4 MO, Morpholino antisense oligo against DrHCN4 (Gene Tools)] | 44 ± 2 | 110 ± 3 | 136 ± 3 | – | 59 | 79 | – |
| COc1ccc(CCN(C)CCCN2CCc3cc(OC)c(OC)cc3CC2=O)cc1OC [zatebradine] | – | – | – | – | – | – | 38–65% |

Source: article PMC9281569, “Two HCN4 Channels Play Functional Roles in the Zebrafish Heart” (Frontiers in Physiology, 2022)
